In patent publication US12496301B2, “Use of androgen receptor degrader for the treatment of spinal and bulbar muscular atrophy” (Arvinas Operations, Inc., priority 2023, dated 2025):
pEC50: −log10 of the molar value. Entries after “also recorded” stand apart in the source; their conditions may differ. Values belong to the compound of their own block, whether it stands above or below them.

Legend:
polyQ-AR [1] = test: Myotube high content imaging of polyQ-AR in myotubes that overexpress polyQ-AR; assay type: cell-based, human
Description: Cells were maintained in skeletal growth medium (PromoCell #23160). Immortalized myoblasts harboring inducible human androgen receptor with 56 CAG repeats (hAR56Q) were constructed by lentiviral transduction with CMV-rtTA and TetO-AR56Q-T2A-Puromycin (Mamchaoui, K. et al. Skeletal Muscle 1, 34 (2011)).
On day 0, immortalized myoblasts with inducible polyQ-AR (described above in “Cell lines”) cells were seeded onto Geltrex-coated 96-well plates at a density of 4×10^6 cells per plate in myoblast basal media (Promocell C-23060) supplemented with 1% penicillin-streptomycin (Pen Strep) antibiotics. The plates were then incubated overnight at 37° C. in a 5% CO2 environment. Upon reaching 100% confluency (Day 1), the myoblast media were aspirated and replaced with myotube differentiation media (Promocell C-23061). The cells were cultured in this differentiation media for 6 days, with media changes occurring every three days.
On the sixth day of differentiation, the compounds and doxycycline ([…]) diluted in 100% dimethyl sulfoxide (DMSO) were added to the myotubes. The plate was then incubated for 24 hours at 37° C. in an incubator. On the following day (Day 7), the culture media was removed from the plates and replaced with 50 μL of 4% paraformaldehyde (PFA) prepared in 1× phosphate-buffered saline (PBS). The plates were incubated with PFA for 15 minutes, followed by three washes with PBS. Subsequently, the myotubes were permeabilized for 15 minutes using 0.5% Triton X-100 in 1×PBS and then blocked with 5% Bovine Serum Albumin (BSA) (Thermofisher, #37520) for one hour at room temperature. After blocking, the plates were incubated overnight at 4° C. with primary antibodies: a 1:100 diluted Androgen Receptor antibody (D6F11 Cell Signaling 5135S) and a 1:200 diluted Desmin antibody (Thermofisher, MA1-22150) in PBS containing 0.1% BSA. […] Degradation was quantified by determining the average intensity of AR within separate nuclear and cytoplasmic compartments in Desmin positive area (myotubes).

AR = biological target: T1, AR (Homo sapiens, UniProt P10275); test: AR agonism assay in MDA-MB-453 ARE-luc reporter cells in the presence of pomalidomide; assay type: cell-based; details: MDA-MB-453 AR luciferase reporter, with pomalidomide
T1 sequence (P10275 1-920 Q868H): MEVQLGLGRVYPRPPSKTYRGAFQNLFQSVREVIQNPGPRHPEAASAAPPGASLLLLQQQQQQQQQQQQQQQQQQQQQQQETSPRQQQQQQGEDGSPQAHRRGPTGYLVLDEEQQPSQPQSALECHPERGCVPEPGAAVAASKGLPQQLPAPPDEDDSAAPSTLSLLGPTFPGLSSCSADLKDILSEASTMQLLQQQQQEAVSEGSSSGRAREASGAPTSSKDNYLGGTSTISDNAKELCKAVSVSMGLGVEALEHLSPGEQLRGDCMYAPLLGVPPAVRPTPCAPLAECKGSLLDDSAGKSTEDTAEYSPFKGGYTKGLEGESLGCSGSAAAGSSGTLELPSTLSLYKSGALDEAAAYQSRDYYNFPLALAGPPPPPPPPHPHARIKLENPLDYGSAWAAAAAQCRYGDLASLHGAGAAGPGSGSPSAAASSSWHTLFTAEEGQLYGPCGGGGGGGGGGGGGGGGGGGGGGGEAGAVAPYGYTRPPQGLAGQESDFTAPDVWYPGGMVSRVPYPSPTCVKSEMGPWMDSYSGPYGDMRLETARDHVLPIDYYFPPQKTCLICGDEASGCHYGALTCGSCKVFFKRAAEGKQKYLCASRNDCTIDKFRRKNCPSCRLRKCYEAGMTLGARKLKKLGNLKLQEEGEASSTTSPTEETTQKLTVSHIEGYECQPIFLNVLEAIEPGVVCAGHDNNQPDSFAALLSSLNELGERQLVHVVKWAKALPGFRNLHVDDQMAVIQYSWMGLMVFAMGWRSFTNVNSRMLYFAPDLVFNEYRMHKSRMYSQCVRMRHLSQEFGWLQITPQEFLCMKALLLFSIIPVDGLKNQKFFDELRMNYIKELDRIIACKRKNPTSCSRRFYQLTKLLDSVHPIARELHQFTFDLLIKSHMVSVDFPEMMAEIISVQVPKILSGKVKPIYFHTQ
Description: The AR Responsive Luciferase Reporter MDA-MB-453 Stable Cell Line (MDA-MB-453 ARE-luc) was utilized for the AR agonism assay. These cells constitutively express the firefly luciferase reporter gene under the control of the androgen receptor response element. MDA-MB-453 ARE-luc cells were cultured in RPMI media (Thermo Fisher Scientific) supplemented with 5% charcoal-Dextran treated fetal bovine serum and were maintained at 37° C. in a 5% CO2 incubator. On day 0, the cells were seeded in 96-well plates at a density of 5×10^6 cells per plate. To prevent serum androgen interference during the AR agonism assay, the cells were cultured in phenol-free RPMI media without FBS. On day 1, the cells were treated with the compounds to establish concentration-response curves (CRCs). The compounds were administered at a top concentration of 300 nM with half-log dilutions. The synthetic AR agonist R1881 served as a positive control, with a top concentration of 30 nM and half-log dilutions. E3 ligase inhibitor pomalidomide was included in each well alongside the compounds at a concentration tenfold higher than that of the treated compounds. On day 2, the culture medium was removed, and luminescence data were obtained using the Bright Glo Assay (Promega, Catalog No. E2620) with 50 μL of Bright Glo buffer per well. Luminescence signals were recorded using a plate reader, and the agonism effect was calculated as a percentage using the formula: Agonism effect (%)=(Luminescence signal of compound/Maximum signal of R1881 at 30 nM)*100.

hepatocyte = test: In vitro ADMET: hepatocyte toxicity; assay type: cell-based; details: at 1 μM
hERG = hERG (Homo sapiens, UniProt Q12809); test: In vitro ADMET: hERG inhibition
[2] = Oral bioavailability in non-human primates; assay type: in vivo
polyQ-AR [3] = test: Global proteomics in SBMA hiPSC-myotubes: polyQ-AR and specificity; assay type: cell-based, human; details: 12 nM, SBMA hiPSC-myotubes
Source text: (§1) (FIG. 12A). […] (FIG. 12C).

polyQ-AR [4] = test: polyQ-AR degradation in SBMA patient hiPSC-derived myotubes, capillary immunoassay; assay type: cell-based, human; details: concentration response
Description: Lysates for hiPSC-derived myotubes were prepared in lysis buffer ([…], 50 mM sodium chloride, 1% NP-40, 1% SDS) supplemented with Halt Protease Inhibitor (78437 Thermo Fisher Scientific), Benzonase, and MgCl2 (1 mM final concentration). The lysates were cleared by centrifugation at 4° C. and supernatants were quantified using the BIO-RAD DC protein assay (5000112 BIO-RAD). The AR and protein levels were quantified by an automated capillary immunoassay experiment (ProteinSimple). The AR and Myosin Protein levels were quantified and normalized to total protein.
Control and SBMA hiPSCs were differentiated into myotubes as previously described (Caron, L. et al. 2016, STEM CELLS Transl. Med. 5, 1145-1161) using the skeletal muscle differentiation kit (Amsbio). hiPSCs were dissociated to single cells using Accutase and plated on Geltrex-coated 10 cm culture plates at a density of 200,000 cells per plate with SBMA hiPSCs in skeletal muscle induction media (SKM01, AMSBIO). Media changes were performed every second day until cells were confluent (˜7 days). The resulting myogenic precursor cells were then dissociated to single cells using Accutase and replated on Matrigel-coated 24-well tissue culture plate with 500 μL of cells at 35,000 cells per mL in skeletal myoblast media (SKM02, AMSBIO). Half media changes were performed every second day until myoblasts reached confluence (˜7 days). The media was then switched to myotube medium (SKM03, ASMBIO). Media changes every second day until myotube formation was confirmed by microscopy. Myotubes were treated on day 20 of differentiation (6 days' worth of SKM03 media) with compounds diluted in DMSO for a final DMSO concentration of 0.01% in SKM03 media. The cells were lysed 24 hours later in Pierce RIPA buffer (Cat. No. 89900, ThermoFisher) supplemented with 1× Halt protease inhibitor cocktail (Cat. No. 87786, ThermoFisher), 1 mM MgCl2, and 1 μL Benzonase Nuclease. AR protein was measured by capillary electrophoresis. […]

PDE6D = biological target: T2, PDE6D (Homo sapiens, UniProt O43924); test: Global proteomics / Western blot in SBMA hiPSC-myotubes: neosubstrate PDE6D; assay type: cell-based; details: global proteomics, SBMA hiPSC-myotubes
T2 construct: endogenous in cells; host or cells: SBMA hiPSC-derived myotubes
Source text: as §1

hERG, sequence (Q12809 whole entry): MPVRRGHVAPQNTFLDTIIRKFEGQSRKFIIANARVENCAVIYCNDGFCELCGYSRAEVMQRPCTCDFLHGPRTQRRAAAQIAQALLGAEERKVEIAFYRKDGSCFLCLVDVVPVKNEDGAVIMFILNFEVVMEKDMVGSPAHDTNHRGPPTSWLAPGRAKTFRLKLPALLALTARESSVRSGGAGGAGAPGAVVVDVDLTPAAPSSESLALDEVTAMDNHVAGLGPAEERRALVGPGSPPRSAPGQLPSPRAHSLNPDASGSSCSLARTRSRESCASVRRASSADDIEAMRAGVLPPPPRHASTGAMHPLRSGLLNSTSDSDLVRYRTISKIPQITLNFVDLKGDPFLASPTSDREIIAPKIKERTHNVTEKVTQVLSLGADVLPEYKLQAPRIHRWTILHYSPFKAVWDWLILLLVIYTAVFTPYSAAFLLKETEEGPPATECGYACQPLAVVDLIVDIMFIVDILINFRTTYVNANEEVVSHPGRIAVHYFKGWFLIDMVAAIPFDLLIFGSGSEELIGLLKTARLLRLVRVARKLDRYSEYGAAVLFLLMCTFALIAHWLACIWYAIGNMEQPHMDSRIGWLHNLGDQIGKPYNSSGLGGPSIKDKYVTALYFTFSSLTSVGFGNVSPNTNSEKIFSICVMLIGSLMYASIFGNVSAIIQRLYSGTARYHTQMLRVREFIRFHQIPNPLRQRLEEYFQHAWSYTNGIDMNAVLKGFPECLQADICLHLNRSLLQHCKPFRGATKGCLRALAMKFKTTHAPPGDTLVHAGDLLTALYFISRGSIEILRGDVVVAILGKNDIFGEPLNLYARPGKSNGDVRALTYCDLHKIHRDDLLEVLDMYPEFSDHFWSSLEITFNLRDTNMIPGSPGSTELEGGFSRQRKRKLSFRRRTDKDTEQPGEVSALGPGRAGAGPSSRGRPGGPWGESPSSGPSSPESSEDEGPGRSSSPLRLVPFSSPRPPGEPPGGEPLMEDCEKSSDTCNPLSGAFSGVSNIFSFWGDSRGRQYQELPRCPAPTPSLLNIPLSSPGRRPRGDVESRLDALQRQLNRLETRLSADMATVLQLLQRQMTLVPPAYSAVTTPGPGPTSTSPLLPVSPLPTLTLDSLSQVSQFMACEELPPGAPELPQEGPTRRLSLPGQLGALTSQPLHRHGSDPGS
T2 sequence (O43924 whole entry): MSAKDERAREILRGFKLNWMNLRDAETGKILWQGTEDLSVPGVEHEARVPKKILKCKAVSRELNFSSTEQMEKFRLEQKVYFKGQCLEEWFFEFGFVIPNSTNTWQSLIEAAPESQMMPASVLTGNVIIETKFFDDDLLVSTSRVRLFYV

agonism activity at Emax relative to R1881 (AR): > 40%
pEC50 (AR; read-out: EC50, AR agonist activity): 7.43
Structure (SMILES): Cc1cc(O[C@H]2C(C)(C)[C@H](NC(=O)c3cnc(N4CCC(CN(C(C)C)[C@H]5C[C@H](Oc6ccc7c(c6)C(=O)N(C6CCC(=O)NC6=O)C7=O)C5)CC4)nc3)C2(C)C)cc(C)c1C#N (stereo partly shown) [Compound B]
mean Dmax for polyQ-AR in myotube nuclei (polyQ-AR [1]; 24 hours treatment, nuclear compartment): increase in nuclear polyQ-AR
total polyQ-AR signal in myotubes (polyQ-AR [1]; data not shown): reduced the total polyQ-AR signal

Structure (SMILES): CC1(C)[C@H](NC(=O)c2cnc(N3CCC(CN4CCN(c5cc6c(cc5F)C(=O)N(C5CCC(=O)NC5=O)C6=O)CC4)CC3)nc2)C(C)(C)[C@H]1Oc1ccc(C#N)c(Cl)c1 (stereo partly shown) [Compound C]
hepatocyte toxicity (hepatocyte): 50%

Structure (SMILES): CCN(CC1CCN(c2cnc(C(=O)N[C@H]3C(C)(C)[C@H](Oc4cc(C)c(C#N)c(C)c4)C3(C)C)cn2)CC1)[C@H]1C[C@H](Oc2ccc3c(c2)C(=O)N(C2CCC(=O)NC2=O)C3=O)C1 (stereo partly shown) [Compound D]
hERG inhibition (hERG): < 10 µM

oral bioavailability [2]: poor oral bioavailability
Structure (SMILES): COc1cc(O[C@H]2CC[C@H](NC(=O)c3cnc(N4CCC(CN(C(C)C)[C@H]5C[C@H](Oc6ccc7c(c6)C(=O)N(C6CCC(=O)NC6=O)C7=O)C5)CC4)cn3)CC2)ccc1C#N (stereo partly shown) [Compound E]

PDE6D as neosubstrate (PDE6D): not a neosubstrate
Structure (SMILES): CC(C)N(CC1CCN(c2ncc(C(=O)N[C@H]3C(C)(C)[C@H](Oc4ccc(C#N)c(Cl)c4)C3(C)C)cn2)CC1)[C@H]1C[C@H](Oc2ccc3c(c2)C(=O)N(C2CCCN(C)C2=O)C3=O)C1 (stereo partly shown) [Compound F, reference compound]
polyQ-AR degradation compared to control, global proteomics (polyQ-AR [3]): does not induce degradation; also recorded: does not degrade AR
polyQ-AR degradation in SBMA hiPSC-myotubes (polyQ-AR [4]): did not induce polyQ-AR degradation
